Source: patent US20230248834A1, “DEGRADATION OF (EGFR) BY CONJUGATION OF EGFR INHIBITORS WITH E3 LIGASE LIGAND AND METHODS OF USE” (BEIGENE, LTD., priority 2020, published 2023)

Target: T1, EGFR L858R/T790M/C797S (Homo sapiens, UniProt P00533, C797S/L858R/T790M)
T1 construct: expressed in transfected cells; host or cells: BaF3-LTC
Test: EGFR degradation HTRF assay in BaF3-LTC cells
Type: cell-based
Conditions: BaF3-LTC (L858R/T790M/C797S), maximum percentage of inhibition (degradation); read-out: BaF3-LTC Dmax (%)
Experimental: BaF3-LTC(L858R/T790M/C797S) cells and BaF3 LC(L858R/C797S) cells are treated with compounds diluted in 0.2% DMSO cell culture medium and incubate for 16 h, 37° C., 5% CO2. the final concentration of compounds in all assay is start with 10 uM, 5-fold dilution, total 8 doses were included.
After 16 h treatment, add HTRF lysis buffer to each well; seal the plate and incubate 1 hour at room temperature on a plate shaker; Once the cells are lysed, 16 μL of cell lysate are transferred to a PE 384-well HTRF detection plate; 4 μL of pre-mixed HTRF antibodies are added to each well; Cover the plate with a plate sealer, spin 1000 rpm for 1 min, Incubate overnight at room temperature; Read on BMG PheraStar with HTRF protocol (337 nm-665 nm-620 nm).
The inhibition (degradation) percentage of the compound was calculated by the following equation: Inhibition percentage of Compound=100−100×(Signal−low control)/(High control−low control), wherein signal=each test compound group
High control=Cell group with added DMSO and without compound, indicating microplate readings without EGFR degradation;
Dmax is the maximum percentage of inhibition (degradation).
The IC50 (DC50) value of a compound can be obtained by fitting the following equation
Y=Bottom+(TOP−Bottom)/(1+((IC50/X)^hillslope))
Wherein, X and Y are known values, and IC50, Hillslope, Top and Bottom are the parameters obtained by fitting with software. Y is the inhibition percentage (calculated from the equation), X is the concentration of the compound; IC50 is the concentration of the compound when the 50% inhibition is reached. The smaller the IC50 value is, the stronger the inhibitory ability of the compound is. Vice versa, the higher the IC50 value is, the weaker the inhibitory ability of the compound is; Hillslope represents the slope of the fitted curve, generally around 1*; Bottom represents the minimum value of the curve obtained by data fitting, which is generally 0%±20%; Top represents the maximum value of the curve obtained by data fitting, which is generally 100%±20%. The experimental data were fitted by calculating and analyzing with Dotmatics data analysis software.

T1 sequence (P00533 25-1210 T790M/C797S/L858R): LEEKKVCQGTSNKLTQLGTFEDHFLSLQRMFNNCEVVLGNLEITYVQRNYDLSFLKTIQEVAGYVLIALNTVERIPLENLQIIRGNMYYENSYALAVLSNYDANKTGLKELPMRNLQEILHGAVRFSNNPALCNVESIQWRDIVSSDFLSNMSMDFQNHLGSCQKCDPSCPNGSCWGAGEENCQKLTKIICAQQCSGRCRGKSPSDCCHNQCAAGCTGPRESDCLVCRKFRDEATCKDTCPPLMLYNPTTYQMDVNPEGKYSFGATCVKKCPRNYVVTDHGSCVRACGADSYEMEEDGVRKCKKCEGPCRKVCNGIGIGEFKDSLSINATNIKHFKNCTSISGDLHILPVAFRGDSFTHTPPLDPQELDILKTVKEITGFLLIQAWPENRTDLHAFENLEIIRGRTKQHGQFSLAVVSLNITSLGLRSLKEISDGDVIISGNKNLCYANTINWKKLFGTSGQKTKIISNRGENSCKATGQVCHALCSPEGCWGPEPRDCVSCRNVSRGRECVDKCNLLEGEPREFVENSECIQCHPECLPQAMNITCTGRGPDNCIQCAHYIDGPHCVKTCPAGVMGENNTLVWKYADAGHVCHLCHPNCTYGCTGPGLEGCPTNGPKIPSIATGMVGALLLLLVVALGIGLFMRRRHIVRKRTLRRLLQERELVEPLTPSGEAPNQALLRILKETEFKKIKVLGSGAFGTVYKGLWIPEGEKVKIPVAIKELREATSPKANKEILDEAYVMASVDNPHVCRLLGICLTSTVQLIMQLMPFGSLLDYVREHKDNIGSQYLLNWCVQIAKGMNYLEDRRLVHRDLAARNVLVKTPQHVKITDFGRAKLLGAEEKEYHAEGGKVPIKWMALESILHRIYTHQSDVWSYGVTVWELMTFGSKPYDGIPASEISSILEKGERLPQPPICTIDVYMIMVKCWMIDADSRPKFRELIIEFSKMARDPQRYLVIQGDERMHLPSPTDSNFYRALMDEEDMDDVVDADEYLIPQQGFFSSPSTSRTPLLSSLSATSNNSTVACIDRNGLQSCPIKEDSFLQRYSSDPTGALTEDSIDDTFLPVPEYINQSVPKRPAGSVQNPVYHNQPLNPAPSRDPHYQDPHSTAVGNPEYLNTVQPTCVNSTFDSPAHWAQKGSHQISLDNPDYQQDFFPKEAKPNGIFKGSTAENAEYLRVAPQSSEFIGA

A Dmax of 95.6% was found for `CCOc1cc(N2CCC(N3CCN(CC4CN(c5cc(F)c([C@H]6CCC(=O)NC6=O)c(F)c5)C4)CC3)CC2)c(CC)cc1Nc1ncc(Br)c(Nc2ccc3nc(CC)ccc3c2P(C)(C)=O)n1` [Example 541, (R)-3-(4-(3-((4-(1-(4-((5-bromo-4-((5-(dimethylphosphoryl)-2-ethylquinolin-6-yl)amino)pyrimidin-2-yl)amino)-5-ethoxy-2-ethylphenyl)piperidin-4-yl)piperazin-1-yl)methyl)azetidin-1-yl)-2,6-difluorophenyl)piperidine-2,6-dione] in this work.
A Dmax of 95.9% was found for `CCOc1cc(N2CCC(N3CCN(CCc4c(F)ccc5c4n(CC)c(=O)n5C4CCC(=O)NC4=O)CC3)CC2)c(CC)cc1Nc1ncc(Br)c(Nc2ccc3nc(CC)ccc3c2P(C)(C)=O)n1` (stereo not shown) [Example 558, 3-(4-(2-(4-(1-(4-((5-bromo-4-((5-(dimethylphosphoryl)-2-ethylquinolin-6-yl)amino)pyrimidin-2-yl)amino)-5-ethoxy-2-ethylphenyl)piperidin-4-yl)piperazin-1-yl)ethyl)-3-ethyl-5-fluoro-2-oxo-2,3-dihydro-1H-benzo[d]imidazol-1-yl)piperidine-2,6-dione] in this work.
A Dmax of 91.7% was found for `[2H]C1([2H])CC([2H])(c2c(F)cc(CCN3CCN(C4CCN(c5cc(OCC)c(Nc6ncc(Br)c(Nc7ccc8nc(C)ccc8c7P(C)(C)=O)n6)cc5CC)CC4)CC3)cc2F)C(=O)NC1=O` (stereo not shown) [Example 570, 3-(4-(2-(4-(1-(4-((5-bromo-4-((5-(dimethylphosphoryl)-2-methylquinolin-6-yl)amino)pyrimidin-2-yl)amino)-5-ethoxy-2-ethylphenyl)piperidin-4-yl)piperazin-1-yl)ethyl)-2,6-difluorophenyl)piperidine-2,6-dione-3,5,5-d3] in this work.
A Dmax of 97.5% was found for `CCOc1cc(N2CCC(N3CCN(C(=O)[C@H]4CN(c5cc(F)c([C@H]6CCC(=O)NC6=O)c(F)c5)CC4(C)C)CC3)CC2)c(C)cc1Nc1ncc(Br)c(Nc2ccc3nc(C)ccc3c2P(C)(C)=O)n1` [Example 727, (R)-3-(4-((R)-4-(4-(1-(4-((5-bromo-4-((5-(dimethylphosphoryl)-2-methylquinolin-6-yl)amino)pyrimidin-2-yl)amino)-5-ethoxy-2-methylphenyl)piperidin-4-yl)piperazine-1-carbonyl)-3,3-dimethylpyrrolidin-1-yl)-2,6-difluorophenyl)piperidine-2,6-dione] in this work.
A Dmax of 95.3% was found for `CCOc1cc(N2CCC(N3CCN(CCc4cc(F)c([C@H]5CCC(=O)NC5=O)c(F)c4)CC3)CC2)c(CC)cc1Nc1ncc(Br)c(Nc2ccc3nc(C)c(F)cc3c2P(C)(C)=O)n1` [Example 728, (R)-3-(4-(2-(4-(1-(4-((5-bromo-4-((5-(dimethylphosphoryl)-3-fluoro-2-methylquinolin-6-yl)amino)pyrimidin-2-yl)amino)-5-ethoxy-2-ethylphenyl)piperidin-4-yl)piperazin-1-yl)ethyl)-2,6-difluorophenyl)piperidine-2,6-dione] in this work.
A Dmax of 97.1% was found for `COc1cc(N2CCC(N3CCN(C(=O)[C@H]4CN(c5cc(F)c([C@H]6CCC(=O)NC6=O)c(F)c5)CC4(C)C)CC3)CC2)c(C)cc1Nc1ncc(Br)c(Nc2ccc3nc(C)c(F)cc3c2P(C)(C)=O)n1` [Example 729, (R)-3-(4-((R)-4-(4-(1-(4-((5-bromo-4-((5-(dimethylphosphoryl)-3-fluoro-2-methylquinolin-6-yl)amino)pyrimidin-2-yl)amino)-5-methoxy-2-methylphenyl)piperidin-4-yl)piperazine-1-carbonyl)-3,3-dimethylpyrrolidin-1-yl)-2,6-difluorophenyl)piperidine-2,6-dione] in this work.
A Dmax of 83.7% was found for `CCOc1cc(N2CCC(N3CCN(CCc4cc(F)c([C@H]5CCC(=O)NC5=O)c(F)c4)CC3)CC2)c(CC)cc1Nc1ncc(Cl)c(Nc2cc(F)c3nc(CC)ccc3c2P(C)(C)=O)n1` [Example 730, (R)-3-(4-(2-(4-(1-(4-((5-chloro-4-((5-(dimethylphosphoryl)-2-ethyl-8-fluoroquinolin-6-yl)amino)pyrimidin-2-yl)amino)-5-ethoxy-2-ethylphenyl)piperidin-4-yl)piperazin-1-yl)ethyl)-2,6-difluorophenyl)piperidine-2,6-dione] in this work.
